In patent US20250312352A1, “GLP-1R MODULATING COMPOUNDS” (Gilead Sciences, Inc., priority 2021, published 2025) one finds EC50 data, which are given here for 17 compounds.

T1 sequence (P43220 24-463): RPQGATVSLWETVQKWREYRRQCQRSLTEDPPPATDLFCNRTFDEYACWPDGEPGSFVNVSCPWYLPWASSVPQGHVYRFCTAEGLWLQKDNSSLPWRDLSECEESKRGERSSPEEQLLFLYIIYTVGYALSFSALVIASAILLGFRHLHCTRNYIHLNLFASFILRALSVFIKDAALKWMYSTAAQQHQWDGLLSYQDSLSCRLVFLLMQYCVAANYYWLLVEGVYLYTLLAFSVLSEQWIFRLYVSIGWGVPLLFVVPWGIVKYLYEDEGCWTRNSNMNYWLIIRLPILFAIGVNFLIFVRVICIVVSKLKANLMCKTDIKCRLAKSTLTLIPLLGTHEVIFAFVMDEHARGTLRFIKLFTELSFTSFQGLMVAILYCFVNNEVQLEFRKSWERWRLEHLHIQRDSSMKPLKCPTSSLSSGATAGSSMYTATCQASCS

The assay addresses T1, GLP-1R (Homo sapiens, UniProt P43220).
T1 construct: host or cells: CHO cells
The assay is described as follows: GLP-1R activation cAMP assay (Assay 1 or Assay 2). The class given is cell-based. To be noted: cAMP increase in CHO cells stably expressing GLP-1R; compounds run on one of the two cAMP assays. The method, boiled down:
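CHO cells stably expressing human GLP-1R were incubated 1 h in HBSS/20 mM HEPES/0.1% BSA, then exposed to 10-point agonist dilutions for 30 min at 37 °C. cAMP increase was measured with an HTRF Gs dynamic kit; EC50 from sigmoidal fit of response versus log concentration.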
In general terms: Changes in cAMP serve as a functional read-out for many G protein-coupled receptors.
The compound `COc1nnc(COc2nc(-c3cc(Cl)c(Cc4nc5ccc(C(=O)O)cc5n4[C@@H]4COCC4(C)C)cc3C)ccc2F)s1` [Example 441, (S)-2-(2-chloro-4-(5-fluoro-6-((5-methoxy-1,3,4-thiadiazol-2-yl)methoxy)pyridin-2-yl)-5-methylbenzyl)-1-(4,4-dimethyltetrahydrofuran-3-yl)-1H-benzo[d]imidazole-6-carboxylic acid] returned an EC50 of 0.475 nM.

For the compound `N#CCNC(=O)c1ccc(COc2cccc(-c3cc(F)c(Cc4nc5ccc(C(=O)O)cc5n4C[C@@H]4CCO4)cc3F)n2)cn1` [Example 175, (S)-2-(4-(6-((6-((cyanomethyl)carbamoyl)pyridin-3-yl)methoxy)pyridin-2-yl)-2,5-difluorobenzyl)-1-(oxetan-2-ylmethyl)-1H-benzo[d]imidazole-6-carboxylic acid], the EC50 amounted to 0.11 nM. The same measure for `Cn1nccc1C#Cc1ccc(COc2cccc(-c3cc(F)c(Cc4nc5ccc(C(=O)O)cc5n4C[C@@H]4CCO4)cc3F)n2)c(F)c1` [Example 135, (S)-2-(2,5-difluoro-4-(6-((2-fluoro-4-((1-methyl-1H-pyrazol-5-yl)ethynyl)benzyl)oxy)pyridin-2-yl)benzyl)-1-(oxetan-2-ylmethyl)-1H-benzo[d]imidazole-6-carboxylic acid]: 0.34 nM. The same measure for `O=C(O)c1cc(F)c2nc(Cc3cc(F)c(-c4ccc(F)c(OCc5ncc(-c6cnn(C(F)F)c6)s5)c4)cc3F)n(C[C@@H]3CCO3)c2c1` [Example 387, (S)-2-((3′-((5-(1-(difluoromethyl)-1H-pyrazol-4-yl)thiazol-2-yl)methoxy)-2,4′,5-trifluoro-[1,1′-biphenyl]-4-yl)methyl)-4-fluoro-1-(oxetan-2-ylmethyl)-1H-benzo[d]imidazole-6-carboxylic acid]: 0.095 nM; for `Cc1nnc(COc2nc(-c3cc(F)c(Cc4nc5c(F)cc(C(=O)O)cc5n4C[C@@H]4CCO4)cc3F)ccc2F)s1` [Example 297, (S)-2-(2,5-difluoro-4-(5-fluoro-6-((5-methyl-1,3,4-thiadiazol-2-yl)methoxy)pyridin-2-yl)benzyl)-4-fluoro-1-(oxetan-2-ylmethyl)-1H-benzo[d]imidazole-6-carboxylic acid]: 0.508 nM. To `COc1cc(C(N)=O)ncc1COc1cccc(-c2cc(F)c(Cc3nc4ccc(C(=O)O)cc4n3C[C@@H]3CCO3)cc2F)n1` [Example 242, (S)-2-(4-(6-((6-carbamoyl-4-methoxypyridin-3-yl)methoxy)pyridin-2-yl)-2,5-difluorobenzyl)-1-(oxetan-2-ylmethyl)-1H-benzo[d]imidazole-6-carboxylic acid] belongs 0.02 nM. Consider `O=C(O)c1ccc2nc(Cc3cc(F)c(-c4cccc(OCc5ccn(C(F)(F)F)n5)n4)cc3F)n(C[C@@H]3CCO3)c2c1` [Example 12, (S)-2-(2,5-difluoro-4-(6-((1-(trifluoromethyl)-1H-pyrazol-3-yl)methoxy)pyridin-2-yl)benzyl)-1-(oxetan-2-ylmethyl)-1H-benzo[d]imidazole-6-carboxylic acid], for which the response was half-maximal at 1.16 nM (EC50). `CCOc1nc(Cl)c(COc2cccc(-c3cc(F)c(Cc4nc5ccc(C(=O)O)cc5n4C[C@@H]4CCO4)cc3F)n2)s1` [Example 353, (S)-2-(4-(6-((4-chloro-2-ethoxythiazol-5-yl)methoxy)pyridin-2-yl)-2,5-difluorobenzyl)-1-(oxetan-2-ylmethyl)-1H-benzo[d]imidazole-6-carboxylic acid]: a half-maximal response (EC50) required 0.188 nM. The same measure for `O=C(O)c1ccc2nc(Cc3cc(F)c(-c4cccc(OCc5ccc(C#Cc6cncs6)cc5F)n4)cc3F)n(C[C@@H]3CCO3)c2c1` [Example 137, (S)-2-(2,5-difluoro-4-(6-((2-fluoro-4-(thiazol-5-ylethynyl)benzyl)oxy)pyridin-2-yl)benzyl)-1-(oxetan-2-ylmethyl)-1H-benzo[d]imidazole-6-carboxylic acid]: 0.24 nM; for `CNC(=O)c1cc(Cl)c(COc2cccc(-c3ccc(Cc4nc5ccc(C(=O)O)cc5n4CC4(CF)CC4)c(F)c3)n2)cn1` [Example 402, 2-(4-(6-((4-chloro-6-(methylcarbamoyl)pyridin-3-yl)methoxy)pyridin-2-yl)-2-fluorobenzyl)-1-((1-(fluoromethyl)cyclopropyl)methyl)-1H-benzo[d]imidazole-6-carboxylic acid]: 0.208 nM. The same measure for `COCCn1c(Cc2cc(F)c(-c3cccc(OCc4cn(-c5ccccc5)cn4)n3)cc2F)nc2ccc(C(=O)O)cc21` [Example 122, 2-(2,5-difluoro-4-(6-((1-phenyl-1H-imidazol-4-yl)methoxy)pyridin-2-yl)benzyl)-1-(2-methoxyethyl)-1H-benzo[d]imidazole-6-carboxylic acid]: 695 nM. The same measure for `CC(C)(O)C#Cc1cnc(COc2cccc(-c3cc(F)c(Cc4nc5ccc(C(=O)O)cc5n4C[C@@H]4CCO4)cc3F)n2)s1` [Example 334, (S)-2-(2,5-difluoro-4-(6-((5-(3-hydroxy-3-methylbut-1-yn-1-yl)thiazol-2-yl)methoxy)pyridin-2-yl)benzyl)-1-(oxetan-2-ylmethyl)-1H-benzo[d]imidazole-6-carboxylic acid]: 0.354 nM; for `COc1nnc(COc2cccc(-c3cc(F)c(Cc4nc5ccc(C(=O)O)cc5n4[C@@H]4COCC4(C)C)cc3C)n2)s1` [Example 261, (S)-1-(4,4-dimethyltetrahydrofuran-3-yl)-2-(2-fluoro-4-(6-((5-methoxy-1,3,4-thiadiazol-2-yl)methoxy)pyridin-2-yl)-5-methylbenzyl)-1H-benzo[d]imidazole-6-carboxylic acid]: 0.044 nM; for `CNC(=O)c1cc(Cl)c(COc2cccc(-c3ccc(Cc4nc5ccc(C(=O)O)cc5n4[C@@H]4COCC4(C)C)c(F)c3)n2)cn1` [Example 399, (S)-2-(4-(6-((4-chloro-6-(methylcarbamoyl)pyridin-3-yl)methoxy)pyridin-2-yl)-2-fluorobenzyl)-1-(4,4-dimethyltetrahydrofuran-3-yl)-1H-benzo[d]imidazole-6-carboxylic acid]: 0.01 nM. “2-(4-(6-((5-(difluoromethyl)thiazol-2-yl)methoxy)pyridin-2-yl)-2,5-difluorobenzyl)-4-fluoro-1-((1-(fluoromethyl)cyclopropyl)methyl)-1H-benzo[d]imidazole-6-carboxylic acid [Example 413]”: the response was half-maximal at 0.36 nM (EC50). `CO[C@H](C)Cn1c(Cc2cc(F)c(-c3cccc(OCc4ncc(-c5cnn(C)c5)s4)n3)cc2F)nc2ccc(C(=O)O)cc21` [Example 224, 2-[[2,5-difluoro-4-[6-[[5-(1-methylpyrazol-4-yl)thiazol-2-yl]methoxy]-2-pyridyl]phenyl]methyl]-3-[(2R)-2-methoxypropyl]benzimidazole-5-carboxylic acid] displayed an EC50 of 1.11 nM. On to `O=C(O)c1ccc2nc(Cc3cc(F)c(-c4cccc(OCc5nnc(Cl)s5)n4)cc3F)n(C[C@@H]3CCO3)c2c1` [Example 49, (S)-2-(4-(6-((5-chloro-1,3,4-thiadiazol-2-yl)methoxy)pyridin-2-yl)-2,5-difluorobenzyl)-1-(oxetan-2-ylmethyl)-1H-benzo[d]imidazole-6-carboxylic acid], for which it took 0.65 nM to reach a half-maximal effect (EC50).

A word on the EC50: it is the concentration that produces a half-maximal response. Higher therefore signals weaker potency.
